Results taken from patent publication US11975073B2 (priority 2020, dated 2024).
Like-named read-outs stand apart in the source and are kept apart here.

Tests used:
[1] = male, Sprague-Dawley, rat, in vivo, po
[2] = Sprague-Dawley, rat, in vivo, 8.8 umol/kg
[3] = cynomolgus monkey, in vivo, po; for AUCinf, free allopregnanolone / AUCinf, total allopregnanolone / Cmax, free allopregnanolone / Cmax, total allopregnanolone: male, 8.8 umol/kg

CCCCCCCC/C=C\CCCCCCCC(=O)OCC(COC(=O)CCCCCCC/C=C\CCCCCCCC)OC(=O)CCCCC(C)CC(=O)OCOC(=O)O[C@@H]1CC[C@@]2(C)[C@@H](CC[C@@H]3[C@@H]2CC[C@]2(C)[C@@H](C(C)=O)CC[C@@H]32)C1 (stereo partly drawn) [I-49, ALL-CASI-C8b′Me-2-TG-oleate]
Tmax ([1]; 2 mg/kg): 1.7 h

CCCC(=O)OCC(COC(=O)CCC)OC(=O)CC(C)CC(=O)OC(C)OC(=O)O[C@@H]1CC[C@@]2(C)[C@@H](CC[C@@H]3[C@@H]2CC[C@]2(C)[C@@H](C(C)=O)CC[C@@H]32)C1 (stereo partly drawn) [I-37]
Tmax [1]: 0.8 h

CCCCCCCC/C=C\CCCCCCCC(=O)OCC(COC(=O)CCCCCCC/C=C\CCCCCCCC)OC(=O)CCCCC(=O)OCO[C@@H]1CC[C@@]2(C)[C@@H](CC[C@@H]3[C@@H]2CC[C@]2(C)[C@@H](C(C)=O)CC[C@@H]32)C1 [I-40]
Tmax ([1]; 2 mg/kg): 1.7 h

CCCCCCCC/C=C\CCCCCCCC(=O)OCC(COC(=O)CCCCCCC/C=C\CCCCCCCC)OC(=O)CC(C)CC(=O)OCO[C@@H]1CC[C@@]2(C)[C@@H](CC[C@@H]3[C@@H]2CC[C@]2(C)[C@@H](C(C)=O)CC[C@@H]32)C1 (stereo partly drawn) [I-9]
Cmax ([1]; 2 mg/kg): 126 nM
Mean Plasma AUC, 0-24 h ([1]; 2 mg/kg): 192.1 nM·h
Tmax ([1]; 2 mg/kg): 1.3 h

CCCCCCCC(=O)OCC(COC(=O)CCCCCCC)OC(=O)CC(C)CC(=O)OCOC(=O)O[C@@H]1CC[C@@]2(C)[C@@H](CC[C@@H]3[C@@H]2CC[C@]2(C)[C@@H](C(C)=O)CC[C@@H]32)C1 (stereo partly drawn) [I-47, ALL-CASI-C5bMe-2-TG-octanoate]
AUCinf, free allopregnanolone [2]: 1.15 nM·h
AUCinf, total allopregnanolone [2]: 3.03 nM·h
Cmax, free allopregnanolone [2]: 520 nM
Cmax, total allopregnanolone [2]: 900 nM
Prodrug detectability in plasma samples after dose administration [3]: detectable in plasma samples after dose administration at all time-points
AUCinf, free allopregnanolone [3]: 0.78 nM·h
AUCinf, total allopregnanolone [3]: 7.4 nM·h
Cmax, free allopregnanolone [3]: 120 nM
Cmax, total allopregnanolone [3]: 1170 nM

CCCCCCCC/C=C\CCCCCCCC(=O)OCC(COC(=O)CCCCCCC/C=C\CCCCCCCC)OC(=O)CC(C)CCCCC(=O)OCO[C@@H]1CC[C@@]2(C)[C@@H](CC[C@@H]3[C@@H]2CC[C@]2(C)[C@@H](C(C)=O)CC[C@@H]32)C1 (stereo partly drawn) [I-42]
Tmax ([1]; 2 mg/kg): 1.5 h

CCCCCCCC(=O)OCC(COC(=O)CCCCCCC)OC(=O)CC(C)CC(=O)OC(C)OC(=O)O[C@@H]1CC[C@@]2(C)[C@@H](CC[C@@H]3[C@@H]2CC[C@]2(C)[C@@H](C(C)=O)CC[C@@H]32)C1 (stereo partly drawn) [I-36, ALL-CMSI-C5bMe-2-TG-octanoate]
AUCinf, free allopregnanolone [2]: 1.12 nM·h
AUCinf, total allopregnanolone [2]: 3.86 nM·h
Cmax, free allopregnanolone [2]: 540 nM
Cmax, total allopregnanolone [2]: 800 nM
Cmax [1]: 242 nM
Tmax [1]: 1.2 h
Prodrug detectability in plasma samples after dose administration [3]: detectable in plasma samples after dose administration at all time-points
AUCinf, free allopregnanolone [3]: 0.62 nM·h
AUCinf, total allopregnanolone [3]: 16.2 nM·h
Cmax, free allopregnanolone [3]: 100 nM
Cmax, total allopregnanolone [3]: 2720 nM

CC(=O)OCC(COC(C)=O)OC(=O)CC(C)CC(=O)OC(C)OC(=O)O[C@@H]1CC[C@@]2(C)[C@@H](CC[C@@H]3[C@@H]2CC[C@]2(C)[C@@H](C(C)=O)CC[C@@H]32)C1 (stereo partly drawn) [I-38]
Mean Plasma AUC, 0-24 h [1]: 450 nM·h
Tmax [1]: 1 h

CCCCCCCC/C=C\CCCCCCCC(=O)OCC(COC(=O)CCCCCCC/C=C\CCCCCCCC)OC(=O)CCCCCCC(=O)OCO[C@@H]1CC[C@@]2(C)[C@@H](CC[C@@H]3[C@@H]2CC[C@]2(C)[C@@H](C(C)=O)CC[C@@H]32)C1 [I-41]
Tmax ([1]; 2 mg/kg): 1.7 h
